Measurements as given in BindingDB's records for doi:10.1016/j.bmc.2007.10.027 (Research Triangle Institute, 2008).

The compounds below were run against Neuronal acetylcholine receptor subunit alpha-4 (Rattus norvegicus, UniProt P09483).
Sequence of Neuronal acetylcholine receptor subunit alpha-4 (P09483 whole entry): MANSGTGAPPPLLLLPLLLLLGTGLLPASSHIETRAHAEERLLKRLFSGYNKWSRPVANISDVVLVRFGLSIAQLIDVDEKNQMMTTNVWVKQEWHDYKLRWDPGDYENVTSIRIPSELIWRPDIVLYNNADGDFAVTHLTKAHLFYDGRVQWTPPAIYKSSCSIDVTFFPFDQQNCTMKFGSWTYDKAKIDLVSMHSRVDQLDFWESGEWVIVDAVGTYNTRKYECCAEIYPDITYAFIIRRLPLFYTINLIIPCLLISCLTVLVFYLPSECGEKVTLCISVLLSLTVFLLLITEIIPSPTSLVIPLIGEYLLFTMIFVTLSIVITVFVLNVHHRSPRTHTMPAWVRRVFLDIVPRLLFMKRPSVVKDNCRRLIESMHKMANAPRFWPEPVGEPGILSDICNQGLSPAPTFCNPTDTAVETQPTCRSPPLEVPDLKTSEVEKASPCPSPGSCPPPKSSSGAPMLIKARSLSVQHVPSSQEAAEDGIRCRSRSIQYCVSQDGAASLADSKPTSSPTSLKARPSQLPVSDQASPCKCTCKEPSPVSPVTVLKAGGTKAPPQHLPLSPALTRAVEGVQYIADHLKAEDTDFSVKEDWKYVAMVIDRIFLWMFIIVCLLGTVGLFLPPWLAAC

Point of comparison: c1cncc(C2CC3CCC2N3)c1 (centres undefined) [2-(pyridin-3-yl)-7-aza-bicyclo[2.2.1]heptane], Ki 0.02 nM. Against it:
- COc1cccc(-c2cc(C3CC4CCC3N4)cnc2F)c1 (racemic) [CAS_45266054] — 6-fold higher, 0.12 nM
- Nc1cccc(-c2cc(C3CC4CCC3N4)cnc2F)c1 (racemic) [CAS_45263775] — 5-fold higher, 0.1 nM
- Fc1ncc(C2CC3CCC2N3)cc1-c1ccccc1 (centres undefined) [NSC_45263762] — 12-fold higher, 0.24 nM
